Drawing on PubChem BioAssay AID179 (DTP/NCI, 2004), this text covers EC50, IC50 and outcome for 70 compounds.

This assay concerns CEM cells HIV-1 protection, formazan growth assay. Kind of assay: NCI AIDS Antiviral Assay. Conditions: for pIC50: measured here: growth of uninfected CEM cells. The method, boiled down: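 Screen of anti-HIV-1 activity in human CEM cells using a formazan-based growth measurement at five drug concentrations. Hits with 50% or greater protection were repeated, and confirmation required reproducible complete protection.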

pEC50, pIC50: −log10 of the molar value. Values joined by “and” are separate entries in the source; they are usually repeats but may differ in a detail not shown here. Equal entries are not always repeated. Active and inactive are the calls of the source.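 Rule for the calls: active = compounds giving half or more protection of infected cells from virus-caused growth loss, again on retest; inactive = the rest.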 Where a SMILES comes first, the peptide text is derived from it.

Usually pEC50 stands for −log10 of the EC50, conventionally taken in molar units. What is called pIC50 is −log10 of the IC50, conventionally taken in molar units. For the compound `CC(=O)Oc1cc(C)c(OC(C)=O)c2c1[C@H]1CC[C@]3(C)[C@@H](OC(C)=O)CC[C@H]3[C@@H]1CC2`, the pEC50 is less than 3.70 and the pIC50 is 4.78.

`O=C(COc1ccc(Cl)cc1)c1ccccc1`: the pEC50 was less than 3.00 and the pIC50 is less than 3.00.

Regarding `COC(=O)c1ccccc1NC(c1ccccn1)c1ccc2cccnc2c1O` (stereo unspecified), the pEC50 was less than 4.59 and the negative-log IC50 (pIC50) was 5.88. The like results for `O=C1CSC2=NC3=C(CSC/C3=C\c3ccccc3)C(c3ccccc3)N12` (stereo unspecified) were, in that order, less than 3.70 and 4.36. Consider `CNC(=O)CNC(=O)C(NC(=O)CNC(=O)C1CCCN1C(=O)C(C)NC(=O)C(NC(C)=O)C(C)C)C(C)C` (stereo unspecified) (Ac-VAPGVG-NHMe; configuration not given here), for which the pEC50 is less than 3.70 and the pIC50 was less than 3.70. With `C[C@@H]1C[C@@H](O)[C@]2(O)O[C@@H]3C[C@@]4(C=O)[C@@H](CC[C@@H]5[C@@H]4CC[C@]4(C)[C@@H](C6=CC(=O)OC6)CC[C@]54O)C[C@H]3O[C@@H]2O1`, the pEC50 is less than 3.33 and the pIC50 is 5.74. The like results for `O=c1ccn(C2OC(CO)CC2F)c(=O)[nH]1` (stereo unspecified) were, in that order, less than 3.17 and less than 3.17. The like results for `CCCCCCCCCCCc1c(O)c(O)cc2nc3cc(Cl)c(Cl)cc3nc12` were, in that order, less than 4.78 and 5.27. The like results for `COc1onc(C)c1CC(=O)O` were, in that order, less than 3.70 and less than 3.70.

On to `O=C(CCCC[n+]1ccccc1)Sc1ccccc1C(=O)Nc1ccc(S(=O)(=O)Nc2ccccn2)cc1`, for which the pEC50 is 4.57 and the pIC50 was 3.94.

Turning to `Cc1ccc(C2=Nc3c(N)nc(N)nc3NC(c3ccccc3)C2)cc1` (stereo unspecified), the pEC50 is less than 3.70; the pIC50 was 5.37 and 5.43. With `COc1cc(/C=C/c2nc(NC(=S)Nc3ccccc3)nnc2C)cc(OC)c1OC`, the pEC50 was less than 3.70 and the pIC50 is 4.86.

`CC1(C)COC(c2cccc3c2C(=O)c2cccc(Cl)c2-3)=N1`: the pEC50 was less than 4.08 and the pIC50 was 4.10. The like results for `Cc1ccc(S(=O)(=O)c2ccc([N+](=O)[O-])o2)cc1` were, in that order, 7.70 and 7.20. With `CSc1cc(-c2ccccn2)nc(-c2ccccn2)c1.CSc1cc(-c2ccccn2)nc(-c2ccccn2)c1.[Co+2].[O-][Cl+3]([O-])([O-])[O-]`, the pEC50 was less than 3.70 and the pIC50 was 6.92. The like results for `CCN(CC)/[N+]([O-])=N/OCC(C)O` (stereo unspecified) were, in that order, less than 2.09 and less than 2.09.

`C(=N\NC1=NCCN1)/c1ccc2ccccc2c1`: the pEC50 is less than 3.70 and the pIC50 is 4.64. Taken in the same sequence, the figures for `N#CN(CS(=O)(=O)O)C(=N)N` were less than 3.70 and less than 3.70. Taken in the same sequence, the figures for `Cc1cc(S(=O)(=O)Nc2n[nH]c(N)n2)c(Cl)cc1Cl` were less than 3.70 and less than 3.70. Taken in the same sequence, the figures for `CSC(=Nc1cc2ccccc2c2ccccc12)NC#N` were less than 4.46 and 4.57. With `COc1cc(CC(=O)O)c(C(=O)c2cccc([N+](=O)[O-])c2)cc1OC`, the pEC50 is less than 3.70 and the pIC50 is 4.43. Taken in the same sequence, the figures for `CCOC(=O)CCN1C(=O)C(=O)N(c2ccc(OC)cc2)C1=S` were less than 3.70 and 4.50.

As for `Cn1c2ccccc2c2cc(-c3ccccc3)c3c(c21)C(=O)C=CC3=O`, the pEC50 is less than 4.11 and the pIC50 was 5.59. As for `COC(=O)[C@H](Cc1c[nH]c2ccccc12)NP(=O)(OC)OCC1OC(n2cc(C)c(=O)[nH]c2=O)CC1N=[N+]=[N-]` (stereo partly specified), the pEC50 is 4.16 and the pIC50 is less than 3.70. For the compound `COc1cc(N(CCC#N)CCC#N)ccc1/C=C1\SC(=S)NC1=O`, the pEC50 was less than 3.70 and the pIC50 was less than 3.70. In the case of `CC(=O)C(=Cc1ccc(C#N)cc1)C(C)=O`, the pEC50 was less than 3.77 and the pIC50 was 4.57. For `CCOC(OCC)C(CC)[Se]c1ccccc1[N+](=O)[O-]` (stereo unspecified), the pEC50 is less than 4.54 and the negative-log IC50 (pIC50) was 5.77.

As for `CC[C@@]1(OP(=O)(O)O)C(=O)OCc2c1cc1n(c2=O)Cc2cc3ccccc3nc2-1`, the pEC50 was less than 5.00 and the pIC50 was 7.58. The like results for `CCCCCCCCCCCCCCCC(=O)NC(Cc1c[nH]c2ccccc12)C(=O)O` (stereo unspecified) were, in that order, less than 3.70 and 4.30. The like results for `NCCCCC(NC(=O)C(Cc1cnc[nH]1)NC(=O)CN)C(=O)O.[Cu+2]` (stereo unspecified) were, in that order, less than 3.70 and 4.15. Turning to `C[C@H]1COC2=C1C(=O)C(=O)c1c2ccc2c1CCCC2(C)C`, the pEC50 was less than 3.70 and the pIC50 was 5.05. With `C=C(C)CC1=C(OCC)C(OC)(OCC)C1=O` (stereo unspecified), the pEC50 was less than 3.70 and the pIC50 is less than 3.70. Turning to `C=CCSCn1ncc2ccc([N+](=O)[O-])cc21`, the pEC50 was less than 3.70 and the pIC50 is 4.47. Taken in the same sequence, the figures for `O=C1[C@@H]2C(c3ccccc3)=NO[C@@H]2C(=O)N1c1ccc(Cc2ccc(N3C(=O)[C@H]4C(c5ccccc5)=NO[C@H]4C3=O)cc2)cc1` were less than 4.50 and less than 4.50. The like results for `COc1cc(C)c(Br)c2c1C(=O)C(Br)(Br)CC2` were, in that order, less than 3.70 and 6.51. The like results for `CNC(=O)c1ccccc1CNC(=S)Nc1cccc(C)c1` were, in that order, less than 3.70 and less than 3.70. On to `CCOC(=O)/C(=C/c1cccc(C#N)c1)N(CC)CC`, for which the pEC50 is less than 3.18 and the pIC50 was 3.46. Turning to `Cc1cc2cc(Cl)ccc2nc1C(=O)c1ccccc1`, the pEC50 was less than 5.59 and the pIC50 was less than 5.59. Consider `COc1ccc2c(=O)c(C)c(/C=C/c3ccco3)oc2c1`, for which the pEC50 is less than 3.80 and the pIC50 was 4.56. Taken in the same sequence, the figures for `CCc1cc(Cc2cc(Cl)c(NC(=O)C(=O)C3NC(=O)NC3=O)c(CC)c2)cc(Cl)c1NC(=O)C(=O)C1NC(=O)NC1=O` (stereo unspecified) were less than 3.82 and 4.61.

In the case of `CC1(O)C2(c3ccccc3)CCC[N+]1(C)CC2` (stereo unspecified), the outcome was inactive.

`COc1cccc(/C=N/[N-]C(=O)c2ccncc2)c1[O-].COc1cccc(/C=N/[N-]C(=O)c2ccncc2)c1[O-].[O]=[U](=[O])([OH2+])[OH2+]`: the pEC50 is less than 3.67 and the pIC50 is 5.31.

With `C[C@]12CCC(=O)C(O)=C1CC[C@@H]1C2CC[C@]2(C)Nc3c(cnn3-c3ccccc3)CC12` (stereo partly specified), the outcome was inactive.

As for `N#C/C(=C1\OC(=N)C(c2ccc(Cl)cc2Cl)C1=O)c1ccc(Cl)cc1Cl` (stereo unspecified), the result was inactive.

Consider `CC(=O)[C@H]1CC[C@H]2[C@@H]3C=CC4=CC(=O)CC[C@@]4(C)[C@@H]3CC[C@]12C`, for which the pEC50 is less than 3.90 and the negative-log IC50 (pIC50) is 4.10. Taken in the same sequence, the figures for `COP(=O)(OC)C(=O)c1ccccc1` were less than 2.94 and less than 2.94.

As to `CO/S(=N/S(=O)(=O)c1ccccc1)c1ccccc1[N+](=O)[O-]` (stereo unspecified), the pEC50 was less than 3.42 and the pIC50 was 3.99. For `C[N+](C)(C)CC(=O)N/N=C(\CCC(=O)NCCc1ccccc1)CC(=O)c1ccccc1`, the result was inactive. Turning to `COc1cc(C)c(O)c(C(=O)O)c1`, the outcome was inactive. In the case of `COC(=O)C(Br)C1CCc2ccccc21` (stereo unspecified), the pEC50 is less than 3.60 and the pIC50 was 3.85. The like results for `CC(C)(C)OC(=O)N1N=NC2C3CC(=O)C(O3)C21` (stereo unspecified) were, in that order, less than 3.01 and 4.96. Consider `CN1CCN(CCSc2nnc(-c3cc4ccccc4s3)c3ccccc23)CC1`, for which the pEC50 is less than 3.79 and the pIC50 is 4.89. Taken in the same sequence, the figures for `CCC(C#N)N(Cc1ccc(CN(C(=O)c2ccccc2)C(C#N)CC)cc1)C(=O)c1ccccc1` (stereo unspecified) were less than 3.70 and 5.06. The like results for `CCC1(COC(NC(=O)c2ccccc2)(C(F)(F)F)C(F)(F)F)COC1` were, in that order, less than 3.70 and 3.94. `CC1(C)COC(c2cccnc2/C=N/O)=N1`: the pEC50 was less than 2.94 and the pIC50 was less than 3.70.

With `Cc1cc(=O)oc2cc(OCc3nc4ccccc4c(=O)o3)ccc12`, the result was inactive. For the compound `CCOC(=O)/C=C\SCCC(=O)OC`, the pEC50 was less than 2.94 and the pIC50 is 3.13. Taken in the same sequence, the figures for `CC1OC2=N[C@@H]1C(=O)N[C@@H](C(C)C)C1=N[C@H](C(=O)N[C@@H](C(C)C)C3=N[C@H](C(=O)N[C@@H](C(C)C)C4=N[C@H](C(=O)N[C@H]2C(C)C)C(C)O4)C(C)O3)C(C)O1` (stereo partly specified) were less than 3.70 and less than 3.70. `N=c1ccn2c(n1)OC1C(O)C(CO)OC12` (stereo unspecified): the pEC50 is 4.43 and < 5.70. For the compound `CC(N)S(=O)(=O)O` (stereo unspecified), the pEC50 was less than 3.70 and the pIC50 was 3.80. Regarding `O=C1CN=C(c2ccc[nH]2)c2cc(Cl)ccc2N1`, the pEC50 is 5.61 and the pIC50 is 5.40. The like results for `O=S(=O)(Cc1ccccc1)C(I)c1ccccc1` (stereo unspecified) were, in that order, less than 4.16 and 4.86.

With `O=C1CSC(c2ccccc2[N+](=O)[O-])N1c1ccc(-n2c(-c3ccccc3)nc3ccccc3c2=O)cc1` (stereo unspecified), the pEC50 is less than 3.70 and the pIC50 is 3.90. Taken in the same sequence, the figures for `Cc1c(C)c(C)c2c(c1C)C/C2=N/O` were less than 4.00 and less than 4.00. Taken in the same sequence, the figures for `CCOC(=O)/C(C#N)=C/c1ccco1` were less than 3.58 and less than 3.58. Taken in the same sequence, the figures for `N#CC(C#N)=Cc1ccccc1C(=O)O` were less than 3.70 and 3.96.

Take `COc1cccc(N2C(Cl)C(=O)C2c2c[nH]c3ccccc23)c1` (stereo unspecified): the pEC50 was less than 4.10 and the pIC50 is less than 4.10. For `CCCCCCCCCCCCCCCc1cccc(O)c1C(=O)O`, the result was inactive. `O=c1c(-c2c(O)cc(O)c3c2O[C@H](c2ccc(O)cc2)[C@@H](O)C3)c(-c2ccc(O)cc2)oc2cc(O)cc(O)c12`: the pEC50 was < 3.70 and 4.50; the negative logarithm of the IC50 (pIC50) is 4.12 and < 4.00.

Take `CC1OC(OC2C(O[C@H]3CC[C@@]4(C)C(=CC[C@H]5[C@@H]6C[C@@H]7O[C@]8(CC[C@H](C)CN8)[C@@H](C)[C@@H]7[C@@]6(C)CC[C@@H]54)C3)OC(CO)C(O)C2OC2OC(CO)C(O)C(O)C2O)C(O)C(O)C1O` (stereo partly specified): the outcome was inactive.
